How the values were obtained:
[1] = test system: hMSC cells; assay: total number of hMSC cells (CaSy cell counter) after cryopreservation, thawing and two weeks of cultivation; format: cell-based, human; settings: Example 1, cryopreservation medium in α-MEM
Experimental: FIG. 1 represents the total number of hMSC cells measured using CaSy cell counter (OMNI Life Science GmbH) after two weeks of cultivation. The data are shown as averages and the standard deviation is shown as an error bar.
Mesenchymal stem cell cultures were cryopreserved. The method of cryopreservation consists of the addition of a cryopreservation medium to the sample and the subsequent […] cryopreservation through a slow freeze at a rate of 1° C./min, for preservation of the sample at low temperatures (−80 C to −196C). The cryopreserved stem cell culture is revived after preservation by thawing in a water bath at 37° C. for 2 minutes and the cryopreservation medium is subsequently washed away from the cellular suspension by centrifugation. The cells are then seeded in a cultivation bottle and cultivated for two weeks.
For cryopreservation, 4 different combinations of cryoprotective medium containing hyaluronic acid with MW 1,500,000 g/mol in two concentrations of 0.1 and 0.2% (w/v) with an addition of 5 or 3% DMSO (v/v) dissolved in a standard α-MEM medium were used. The composition containing 5, 3 or 10% (v/v) DMSO in the medium served as a cryopreservation control.
The mesenchymal stem cells hMSC cultures were cryopreserved. […]

[2] = test system: stem cells; settings: room temperature; Pal et al., 2012; Tunçer et al., 2018; cited from earlier work

C[S+](C)[O-] [DMSO, dimethyl sulfoxide]
stem cell survival and proliferation efficiency [1]: lower MSCs survival and proliferation efficiency
concentration range at which an effect on viability, morphology, cell adhesion and differentiation was observed [2]: 0.1-1 % (v/v)
